The record followed here is publication PMC8703412 (Pharmaceuticals, 2021).

Values after ≈ are worked out from the molar mass of the structure shown. Like-named read-outs stand apart in the source and are kept apart here.

Some test systems named below: Mtb. Praha 4 (MDR-TB); Mtb. Praha 131 (XDR-TB); Mtb. 7357/1998 (MDR-TB); Mtb. 9449/2007 (MDR-TB); Mtb. 8666/2010 (MDR-TB); Mtb. Praha 1 (MDR-TB); Mtb. 234/2005 (MDR-TB).
Holding throughout (test): microbe, parasite or virus in culture
Holding throughout (type): cell-based, Mycobacterium tuberculosis
Common to all, as to conditions: Mycobacterium tuberculosis

Where [1] appears, read: 336 h, read-out: MIC Mtb. Praha 4 14 d.
Setting [2] is: 504 h, read-out: MIC Mtb. Praha 4 21 d.
The mark [3] stands for this setting: 336 h, read-out: MIC Mtb. Praha 131 14 d.
Where [4] appears, read: 504 h, read-out: MIC Mtb. Praha 131 21 d.
The mark [5] stands for this setting: 336 h, read-out: MIC Mtb. 7357/1998 14 d.
The mark [6] stands for this setting: 504 h, read-out: MIC Mtb. 7357/1998 21 d.
Setting [7] is: 336 h, read-out: MIC Mtb. 9449/2007 14 d.
Setting [8] is: 504 h, read-out: MIC Mtb. 9449/2007 21 d.
The mark [9] stands for this setting: 336 h, read-out: MIC Mtb. 8666/2010 14 d.
Setting [10] is: 504 h, read-out: MIC Mtb. 8666/2010 21 d.
Setting [11] is: 336 h, read-out: MIC Mtb. Praha 1 14 d.
Setting [12] is: 504 h, read-out: MIC Mtb. Praha 1 21 d.
Where [13] appears, read: 336 h, read-out: MIC Mtb. 234/2005 14 d.
[14] abbreviates: 504 h, read-out: MIC Mtb. 234/2005 21 d.

`C/C(=N\NC(=O)c1ccncc1)C(=O)Oc1cc(C(C)C)ccc1C` [3l, 2-Isopropyl-5-methyphenyl (E)-2-(2-isonicotinoylhydrazineylidene)propanoate]: the MIC turned out to be 8 µM (≈ 2.72 µg/mL) in the assay on Mtb. Praha 4 (MDR-TB) (setting [1]); 16 µM (≈ 5.43 µg/mL) in the assay with Mtb. Praha 4 (MDR-TB) (setting [2]); 32 µM (≈ 10.9 µg/mL) in the assay with Mtb. Praha 131 (XDR-TB) (setting [3]); 64 µM (≈ 21.7 µg/mL) with Mtb. Praha 131 (XDR-TB) (setting [4]); 16 µM (≈ 5.43 µg/mL) with Mtb. 7357/1998 (MDR-TB) (setting [5]); 32 µM (≈ 10.9 µg/mL) in the assay on Mtb. 7357/1998 (MDR-TB) (setting [6]). The MIC with Mtb. 9449/2007 (MDR-TB) (setting [7]) came to 16 µM (≈ 5.43 µg/mL); with Mtb. 9449/2007 (MDR-TB) (setting [8]), 32 µM (≈ 10.9 µg/mL); in the assay on Mtb. 8666/2010 (MDR-TB) (setting [9]), 16 µM (≈ 5.43 µg/mL); in the assay on Mtb. 8666/2010 (MDR-TB) (setting [10]) it was 16 µM (≈ 5.43 µg/mL); in the assay with Mtb. Praha 1 (MDR-TB) (setting [11]) it was 32 µM (≈ 10.9 µg/mL); in the assay with Mtb. Praha 1 (MDR-TB) (setting [12]) it was 64 µM (≈ 21.7 µg/mL). The results for the MIC in the assay with Mtb. 234/2005 (MDR-TB) (setting [13]) and in the assay with Mtb. 234/2005 (MDR-TB) (setting [14]) were 16 µM (≈ 5.43 µg/mL) and 32 µM (≈ 10.9 µg/mL), respectively.
As for `C/C(=N\NC(=O)c1ccncc1)C(=O)Oc1cccc2cccnc12` [3m, Quinolin-8-yl (E)-2-(2-isonicotinoylhydrazineylidene)propanoate], the MIC in the assay with Mtb. Praha 4 (MDR-TB) (setting [1]), in the assay with Mtb. Praha 4 (MDR-TB) (setting [2]), in the assay on Mtb. Praha 131 (XDR-TB) (setting [3]), in the assay on Mtb. Praha 131 (XDR-TB) (setting [4]), in the assay with Mtb. 7357/1998 (MDR-TB) (setting [5]) and in the assay with Mtb. 7357/1998 (MDR-TB) (setting [6]) was 8 µM (≈ 2.67 µg/mL) in each case. Further, the MIC in the assay with Mtb. 9449/2007 (MDR-TB) (setting [7]), in the assay with Mtb. 9449/2007 (MDR-TB) (setting [8]), with Mtb. 8666/2010 (MDR-TB) (setting [9]), in the assay with Mtb. 8666/2010 (MDR-TB) (setting [10]), in the assay with Mtb. Praha 1 (MDR-TB) (setting [11]) and in the assay with Mtb. Praha 1 (MDR-TB) (setting [12]) was 8 µM (≈ 2.67 µg/mL) throughout. Moreover, the MIC in the assay with Mtb. 234/2005 (MDR-TB) (setting [13]) and in the assay on Mtb. 234/2005 (MDR-TB) (setting [14]) was 8 µM (≈ 2.67 µg/mL) each time.
As to `C/C(=N\NC(=O)c1ccncc1)C(=O)Oc1cc(Cl)ccc1Oc1ccc(Cl)cc1Cl` [3o, 5-Chloro-2-(2,4-dichlorophenoxy)phenyl (E)-2-(2-isonicotinoylhydrazineylidene)propanoate], the MIC in the assay with Mtb. Praha 4 (MDR-TB) (setting [1]), in the assay with Mtb. Praha 4 (MDR-TB) (setting [2]), with Mtb. Praha 131 (XDR-TB) (setting [3]), with Mtb. Praha 131 (XDR-TB) (setting [4]), in the assay on Mtb. 7357/1998 (MDR-TB) (setting [5]) and in the assay with Mtb. 7357/1998 (MDR-TB) (setting [6]) was 32 µM (≈ 15.3 µg/mL) each time. The MIC worked out at 32 µM (≈ 15.3 µg/mL) in the assay on Mtb. 9449/2007 (MDR-TB) (setting [7]); 32 µM (≈ 15.3 µg/mL) in the assay on Mtb. 9449/2007 (MDR-TB) (setting [8]); 32 µM (≈ 15.3 µg/mL) with Mtb. 8666/2010 (MDR-TB) (setting [9]); 32 µM (≈ 15.3 µg/mL) in the assay on Mtb. 8666/2010 (MDR-TB) (setting [10]); 125 µM (≈ 59.8 µg/mL) in the assay on Mtb. Praha 1 (MDR-TB) (setting [11]); 125 µM (≈ 59.8 µg/mL) in the assay on Mtb. Praha 1 (MDR-TB) (setting [12]). Further, the MIC in the assay on Mtb. 234/2005 (MDR-TB) (setting [13]) and in the assay with Mtb. 234/2005 (MDR-TB) (setting [14]) was 32 µM (≈ 15.3 µg/mL) in each case.
In the case of `CC(=O)Nc1ccc(OC(=O)C(C)=NNC(=O)c2ccncc2)cc1` [3p, 4-Acetamidophenyl 2-(2-isonicotinoylhydrazineylidene)propanoate], the MIC in the assay on Mtb. Praha 4 (MDR-TB) (setting [1]) is 32 µM (≈ 10.9 µg/mL); with Mtb. Praha 4 (MDR-TB) (setting [2]), 32 µM (≈ 10.9 µg/mL); in the assay with Mtb. Praha 131 (XDR-TB) (setting [3]), 32 µM (≈ 10.9 µg/mL); with Mtb. Praha 131 (XDR-TB) (setting [4]) it was 64 µM (≈ 21.8 µg/mL); in the assay with Mtb. 7357/1998 (MDR-TB) (setting [5]), 16 µM (≈ 5.45 µg/mL); in the assay with Mtb. 7357/1998 (MDR-TB) (setting [6]), 32 µM (≈ 10.9 µg/mL). Moreover, the MIC was 32 µM (≈ 10.9 µg/mL) in the assay on Mtb. 9449/2007 (MDR-TB) (setting [7]); 64 µM (≈ 21.8 µg/mL) in the assay with Mtb. 9449/2007 (MDR-TB) (setting [8]); 32 µM (≈ 10.9 µg/mL) with Mtb. 8666/2010 (MDR-TB) (setting [9]); 32 µM (≈ 10.9 µg/mL) in the assay on Mtb. 8666/2010 (MDR-TB) (setting [10]); 125 µM (≈ 42.5 µg/mL) with Mtb. Praha 1 (MDR-TB) (setting [11]); 125 µM (≈ 42.5 µg/mL) in the assay on Mtb. Praha 1 (MDR-TB) (setting [12]). In addition, the MIC was found to be 32 µM (≈ 10.9 µg/mL) with Mtb. 234/2005 (MDR-TB) (setting [13]) and 64 µM (≈ 21.8 µg/mL) in the assay on Mtb. 234/2005 (MDR-TB) (setting [14]).
For the compound `C/C(=N\NC(=O)c1ccncc1)C(=O)OCCn1c([N+](=O)[O-])cnc1C` [3q, 2-(2-Methyl-5-nitro-1H-imidazol-1-yl)ethyl (E)-2-(2 isonicotinoylhydrazineylidene)propanoate], the MIC in the assay with Mtb. Praha 4 (MDR-TB) (setting [1]) turned out to be 32 µM (≈ 11.5 µg/mL); in the assay on Mtb. Praha 4 (MDR-TB) (setting [2]), 32 µM (≈ 11.5 µg/mL); with Mtb. Praha 131 (XDR-TB) (setting [3]), 16 µM (≈ 5.77 µg/mL); with Mtb. Praha 131 (XDR-TB) (setting [4]) it was 32 µM (≈ 11.5 µg/mL); with Mtb. 7357/1998 (MDR-TB) (setting [5]) it was 16 µM (≈ 5.77 µg/mL); with Mtb. 7357/1998 (MDR-TB) (setting [6]) it was 32 µM (≈ 11.5 µg/mL). The MIC worked out at 32 µM (≈ 11.5 µg/mL) with Mtb. 9449/2007 (MDR-TB) (setting [7]); 32 µM (≈ 11.5 µg/mL) with Mtb. 9449/2007 (MDR-TB) (setting [8]); 16 µM (≈ 5.77 µg/mL) in the assay on Mtb. 8666/2010 (MDR-TB) (setting [9]); 16 µM (≈ 5.77 µg/mL) in the assay with Mtb. 8666/2010 (MDR-TB) (setting [10]); 125 µM (≈ 45 µg/mL) in the assay with Mtb. Praha 1 (MDR-TB) (setting [11]); 125 µM (≈ 45 µg/mL) with Mtb. Praha 1 (MDR-TB) (setting [12]). Moreover, the MIC in the assay on Mtb. 234/2005 (MDR-TB) (setting [13]) and in the assay with Mtb. 234/2005 (MDR-TB) (setting [14]) was 32 µM (≈ 11.5 µg/mL) throughout.
On to `C/C(=N\NC(=O)c1ccncc1)C(=O)Sc1ccccc1` [3s, S-Phenyl (E)-2-(2-isonicotinoylhydrazineylidene)propanethioate], for which the MIC in the assay with Mtb. Praha 4 (MDR-TB) (setting [1]) stood at 32 µM (≈ 9.58 µg/mL); in the assay on Mtb. Praha 4 (MDR-TB) (setting [2]), 64 µM (≈ 19.2 µg/mL); in the assay on Mtb. Praha 131 (XDR-TB) (setting [3]), 32 µM (≈ 9.58 µg/mL); in the assay on Mtb. Praha 131 (XDR-TB) (setting [4]), 64 µM (≈ 19.2 µg/mL); in the assay with Mtb. 7357/1998 (MDR-TB) (setting [5]) it was 32 µM (≈ 9.58 µg/mL); in the assay with Mtb. 7357/1998 (MDR-TB) (setting [6]) it was 64 µM (≈ 19.2 µg/mL). For the same compound, the MIC was found to be 64 µM (≈ 19.2 µg/mL) in the assay on Mtb. 9449/2007 (MDR-TB) (setting [7]); 64 µM (≈ 19.2 µg/mL) with Mtb. 9449/2007 (MDR-TB) (setting [8]); 32 µM (≈ 9.58 µg/mL) in the assay with Mtb. 8666/2010 (MDR-TB) (setting [9]); 32 µM (≈ 9.58 µg/mL) with Mtb. 8666/2010 (MDR-TB) (setting [10]); 64 µM (≈ 19.2 µg/mL) with Mtb. Praha 1 (MDR-TB) (setting [11]); 125 µM (≈ 37.4 µg/mL) in the assay on Mtb. Praha 1 (MDR-TB) (setting [12]). In addition, the results for the MIC in the assay with Mtb. 234/2005 (MDR-TB) (setting [13]) and with Mtb. 234/2005 (MDR-TB) (setting [14]) were 32 µM (≈ 9.58 µg/mL) and 64 µM (≈ 19.2 µg/mL), respectively.
